Patent US20210230203A1, “Amphiphilic Kanamycin Compositions and Methods” (priority 2020, published 2021)
Values after ≈ are worked out from the molar mass of the structure shown. Where two headings read alike, the source gives them in different places.

Legend:
Candida parapsilosis = assay: MIC against yeast, CLSI M27 & M38 (Table 2); details: for Minimum inhibitory concentration 50%: Table 2, RPMI 0.165M MOPS, 24-72 hours; for MIC: Lodderomyces parapsilosis
C. krusei [1] = assay: MIC against yeast, CLSI M27 & M38 (Table 2); details: Pichia kudriavzevii, ATCC6258, read-out: Minimum inhibitory concentration 50%
Candida guillermondii = assay: MIC against yeast, CLSI M27 & M38 (Table 2); details: Candida
Cryptococcus neoformans = assay: MIC against yeast, CLSI M27 & M38 (Table 2); details: Cryptococcus neoformans
C. krusei [2] = assay: MIC against various species, CLSI M27 & M38 (Table 4); details: Pichia kudriavzevii, ATCC6258, read-out: Minimum inhibitory concentration 50%
C. auris = assay: as above; details: Candidozyma auris
C. albicans = assay: as above; details: Candida albicans
Candida glabrata = assay: MIC against yeast, CLSI M27 & M38 (Table 2); details: Nakaseomyces glabratus
C. parapsilosis = assay: MIC against various species, CLSI M27 & M38 (Table 4); details: Lodderomyces parapsilosis, ATCC22019, read-out: Minimum inhibitory concentration 50%
Candida auris = assay: MIC against yeast, CLSI M27 & M38 (Table 2); details: Candidozyma auris
[3] = system: Cryptococcus neoformans H99; assay: MIC against fungal strains (Table 1); type: cell-based; details: Cryptococcus neoformans H99
E. coli (25922) = assay: MIC against bacterial strains; type: cell-based
Rhodotorula pilimanae = assay: MIC against fungal strains (Table 1); type: cell-based
[4] = system: Fusarium graminearum B4-5A; assay: microbe, parasite or virus in culture; type: cell-based; details: Fusarium graminearum B4-5A
S. aureus (ATCC 25923) = assay: MIC against bacterial strains; type: cell-based
Candida albicans 64124 = assay: MIC against fungal strains (Table 1); type: cell-based
Candida albicans MYA2876 = assay: MIC against fungal strains (Table 1); type: cell-based; details: Candida albicans MYA2876
[5] = system: S. aureus (ATCC 33591) MRSA; type: cell-based
[6] = system: S. aureus (ATCC 43300) MRSA; type: cell-based
P. variotil = assay: MIC against various species, CLSI M27 & M38 (Table 4); type: cell-based, Paecilomyces variotii; details: Paecilomyces variotii, P. variotil QC, RPMI 0.165M MOPS, 24-72 hours, read-out: Minimum inhibitory concentration 100%
Rhizopus arrhizus = assay: MIC against filamentous and dimorphic fungi, CLSI M27 & M38 (Table 3); type: cell-based; details: Rhizopus arrhizus, 24-72 hours, read-out: Minimum inhibitory concentration 100%
P. variatii = assay: as above; type: cell-based, Paecilomyces variotii; details: Paecilomyces variotii, P. variatii MYA-3630, RPMI 0.165M MOPS, 24-72 hours, read-out: Minimum inhibitory concentration 100%
Saksenaea sp. = assay: as above; type: cell-based, Saksenaea species; details: 24-72 hours, read-out: Minimum inhibitory concentration 100%
Apaphysomyces = assay: MIC against various species, CLSI M27 & M38 (Table 4); type: cell-based, Apophysomyces; details: 24-72 hours, read-out: Minimum inhibitory concentration 100%

OC(Cn1cncn1)(Cn1cncn1)c1ccc(F)cc1F [Fluconazole, reference compound]
Minimum inhibitory concentration 50% (Candida parapsilosis; Candida parapsilosis CP2): 0.5 µg/mL (≈ 1.63 µM) | Minimum inhibitory concentration 50% (Candida parapsilosis; Candida parapsilosis CP3): 0.5 µg/mL (≈ 1.63 µM) | MIC (Candida parapsilosis; ATCC22019, read-out: Minimum inhibitory concentration 50%): 1 µg/mL (≈ 3.27 µM) | MIC (Candida parapsilosis; read-out: Minimum inhibitory concentration 50%): 0.5 µg/mL (≈ 1.63 µM) | MIC (C. krusei [1]): 16 µg/mL (≈ 52.2 µM) | MIC (Candida guillermondii; read-out: Minimum inhibitory concentration 50%, Candida guillermondii CGUI1, RPMI 0.165M MOPS, 24-72 hours): 1 µg/mL (≈ 3.27 µM) | MIC (Candida guillermondii; read-out: Minimum inhibitory concentration 50%, Candida guillermondii CGUI2, RPMI 0.165M MOPS, 24-72 hours): 2 µg/mL (≈ 6.53 µM) | MIC (Candida guillermondii; read-out: Minimum inhibitory concentration 50%, Candida guillermondii CGUI3, RPMI 0.165M MOPS, 24-72 hours): 2 µg/mL (≈ 6.53 µM) | MIC (Cryptococcus neoformans; read-out: Minimum inhibitory concentration 50%, Cryptococcus neoformans CN1, RPMI 0.165M MOPS, 24-72 hours): 8 µg/mL (≈ 26.1 µM) | MIC (Cryptococcus neoformans; read-out: Minimum inhibitory concentration 50%, Cryptococcus neoformans H99, RPMI 0.165M MOPS, 24-72 hours): 16 µg/mL (≈ 52.2 µM) | MIC (Cryptococcus neoformans; read-out: Minimum inhibitory concentration 50%, Cryptococcus neoformans USC1597, RPMI 0.165M MOPS, 24-72 hours): 2 µg/mL (≈ 6.53 µM) | MIC (C. krusei [2]): > 16 µg/mL | MIC (C. auris; read-out: Minimum inhibitory concentration 50%, C. auris DI17-46, RPMI 0.165M MOPS, 24-72 hours): > 64 µg/mL | MIC (C. auris; read-out: Minimum inhibitory concentration 50%, C. auris DI17-47, RPMI 0.165M MOPS, 24-72 hours): > 64 µg/mL | MIC (C. auris; read-out: Minimum inhibitory concentration 50%, C. auris DI17-48, RPMI 0.165M MOPS, 24-72 hours): 2 µg/mL (≈ 6.53 µM) | MIC (C. albicans; read-out: Minimum inhibitory concentration 50%, C. albicans CA1, RPMI 0.165M MOPS, 24-72 hours): ≤ 0.125 µg/mL | MIC (C. albicans; read-out: Minimum inhibitory concentration 50%, C. albicans CA2, RPMI 0.165M MOPS, 24-72 hours): ≤ 0.125 µg/mL | MIC (C. albicans; read-out: Minimum inhibitory concentration 50%, C. albicans CA3, RPMI 0.165M MOPS, 24-72 hours): > 64 µg/mL | MIC (Candida glabrata; read-out: Minimum inhibitory concentration 50%, Candida glabrata CG1, RPMI 0.165M MOPS, 24-72 hours): > 64 µg/mL | MIC (Candida glabrata; read-out: Minimum inhibitory concentration 50%, Candida glabrata CG2, RPMI 0.165M MOPS, 24-72 hours): 8 µg/mL (≈ 26.1 µM) | MIC (Candida glabrata; read-out: Minimum inhibitory concentration 50%, Candida glabrata CG3, RPMI 0.165M MOPS, 24-72 hours): 64 µg/mL (≈ 209 µM) | MIC (C. parapsilosis): 1 µg/mL (≈ 3.27 µM) | MIC (Candida auris; read-out: Minimum inhibitory concentration 50%, Candida auris CAU1, RPMI 0.165M MOPS, 24-72 hours): 2 µg/mL (≈ 6.53 µM) | MIC (Candida auris; read-out: Minimum inhibitory concentration 50%, Candida auris CAU2, RPMI 0.165M MOPS, 24-72 hours): 1 µg/mL (≈ 3.27 µM) | MIC (Candida auris; read-out: Minimum inhibitory concentration 50%, Candida auris CAU3, RPMI 0.165M MOPS, 24-72 hours): 0.5 µg/mL (≈ 1.63 µM) | MIC (Candida auris; read-out: Minimum inhibitory concentration 50%, Candida auris CAU4, RPMI 0.165M MOPS, 24-72 hours): > 64 µg/mL | MIC (Candida auris; read-out: Minimum inhibitory concentration 50%, Candida auris CAU5, RPMI 0.165M MOPS, 24-72 hours): 16 µg/mL (≈ 52.2 µM) | MIC (Candida auris; read-out: Minimum inhibitory concentration 50%, Candida auris CAU6, RPMI 0.165M MOPS, 24-72 hours): 2 µg/mL (≈ 6.53 µM) | MIC (Candida auris; read-out: Minimum inhibitory concentration 50%, Candida auris CAU7, RPMI 0.165M MOPS, 24-72 hours): 2 µg/mL (≈ 6.53 µM) | MIC (Candida auris; read-out: Minimum inhibitory concentration 50%, Candida auris DI17-46, RPMI 0.165M MOPS, 24-72 hours): > 64 µg/mL | MIC (Candida auris; read-out: Minimum inhibitory concentration 50%, Candida auris DI17-47, RPMI 0.165M MOPS, 24-72 hours): > 64 µg/mL | MIC (Candida auris; read-out: Minimum inhibitory concentration 50%, Candida auris DI17-48, RPMI 0.165M MOPS, 24-72 hours): 2 µg/mL (≈ 6.53 µM)

CCCCCCCC(=O)NCC1O[C@H](OC2C(N)CC(N)C(OC3O[C@H](CO)C(O)C(N)[C@H]3O)[C@H]2O)C(O)C(O)[C@@H]1O (some centres unmarked) [KI02]
Minimum inhibitory concentration [3]: >256 µg/mL | Minimum inhibitory concentration (E. coli (25922)): >256 µg/mL | Minimum inhibitory concentration (Rhodotorula pilimanae): >256 µg/mL | Minimum inhibitory concentration [4]: >256 µg/mL | Minimum inhibitory concentration (S. aureus (ATCC 25923)): >256 µg/mL | Minimum inhibitory concentration (Candida albicans 64124): >256 µg/mL | Minimum inhibitory concentration (Candida albicans MYA2876): >256 µg/mL

CCCCCCCCCCCC(=O)NC[C@H]1O[C@H](O[C@H]2[C@H](O)[C@@H](O[C@H]3O[C@H](CO)[C@@H](O)[C@H](N)[C@H]3O)[C@H](N)C[C@@H]2N)[C@H](O)[C@@H](O)[C@@H]1O [KI04]
Minimum inhibitory concentration [3]: 8 µg/mL (≈ 12 µM) | Minimum inhibitory concentration (E. coli (25922)): 32 µg/mL (≈ 48 µM) | Minimum inhibitory concentration (Rhodotorula pilimanae): 16 µg/mL (≈ 24 µM) | Minimum inhibitory concentration [4]: 16 µg/mL (≈ 24 µM) | Minimum inhibitory concentration (S. aureus (ATCC 25923)): 32 µg/mL (≈ 48 µM) | Minimum inhibitory concentration [5]: 128 µg/mL (≈ 192 µM) | Minimum inhibitory concentration (Candida albicans 64124): 32 µg/mL (≈ 48 µM) | Minimum inhibitory concentration (Candida albicans MYA2876): 32 µg/mL (≈ 48 µM) | Minimum inhibitory concentration [6]: 128 µg/mL (≈ 192 µM)

CCCCCCCCCCCCCC(=O)NCC1O[C@H](OC2C(N)CC(N)C(OC3O[C@H](CO)C(O)C(N)[C@H]3O)[C@H]2O)C(O)C(O)[C@@H]1O (some centres unmarked) [KI05]
Minimum inhibitory concentration [3]: 4 µg/mL (≈ 5.76 µM) | Minimum inhibitory concentration (E. coli (25922)): 64 µg/mL (≈ 92.1 µM) | Minimum inhibitory concentration (Rhodotorula pilimanae): 4 µg/mL (≈ 5.76 µM) | Minimum inhibitory concentration [4]: 8 µg/mL (≈ 11.5 µM) | Minimum inhibitory concentration (S. aureus (ATCC 25923)): 16 µg/mL (≈ 23 µM) | Minimum inhibitory concentration [5]: 32 µg/mL (≈ 46.1 µM) | Minimum inhibitory concentration (Candida albicans 64124): 16 µg/mL (≈ 23 µM) | Minimum inhibitory concentration (Candida albicans MYA2876): 16 µg/mL (≈ 23 µM) | Minimum inhibitory concentration [6]: 32 µg/mL (≈ 46.1 µM)

N[C@@H]1[C@@H](O)[C@@H](O[C@@H]2[C@@H](O)[C@H](O[C@H]3O[C@H](CNC(=O)c4cc(-c5ccccc5)nc5ccccc45)[C@@H](O)[C@H](O)[C@H]3O)[C@@H](N)C[C@H]2N)O[C@H](CO)[C@H]1O [KI08]
Minimum inhibitory concentration [3]: 128 µg/mL (≈ 179 µM) | Minimum inhibitory concentration (E. coli (25922)): >256 µg/mL | Minimum inhibitory concentration (Rhodotorula pilimanae): 256 µg/mL (≈ 358 µM) | Minimum inhibitory concentration [4]: >256 µg/mL | Minimum inhibitory concentration (S. aureus (ATCC 25923)): >256 µg/mL | Minimum inhibitory concentration (Candida albicans 64124): >256 µg/mL | Minimum inhibitory concentration (Candida albicans MYA2876): >256 µg/mL

NC1CC(N)C(O[C@H]2OC(CNC(=O)CCCc3ccc4ccc5cccc6ccc3c4c56)[C@@H](O)C(O)C2O)[C@H](O)C1OC1O[C@H](CO)C(O)C(N)[C@H]1O (some centres unmarked) [KI09]
Minimum inhibitory concentration [3]: 16 µg/mL (≈ 21.2 µM) | Minimum inhibitory concentration (E. coli (25922)): 128 µg/mL (≈ 170 µM) | Minimum inhibitory concentration (Rhodotorula pilimanae): 16 µg/mL (≈ 21.2 µM) | Minimum inhibitory concentration [4]: 16 µg/mL (≈ 21.2 µM) | Minimum inhibitory concentration (S. aureus (ATCC 25923)): 32 µg/mL (≈ 42.4 µM) | Minimum inhibitory concentration [5]: 128 µg/mL (≈ 170 µM) | Minimum inhibitory concentration (Candida albicans 64124): 16 µg/mL (≈ 21.2 µM) | Minimum inhibitory concentration (Candida albicans MYA2876): 16 µg/mL (≈ 21.2 µM) | Minimum inhibitory concentration [6]: 32 µg/mL (≈ 42.4 µM)

CC[C@@H]([C@H](C)O)n1ncn(-c2ccc(N3CCN(c4ccc(OC[C@@H]5CO[C@@](Cn6cncn6)(c6ccc(F)cc6F)C5)cc4)CC3)cc2)c1=O [Posaconazole, reference compound]
MIC (P. variotil): ≤ 0.03 µg/mL | MIC (Rhizopus arrhizus; Rhizopus arrhizus 99-880, RPMI 0.165M MOPS): 1 µg/mL (≈ 1.43 µM) | MIC (Rhizopus arrhizus; Rhizopus arrhizus 99-892, RPMI 0.165M MOPS): 0.25 µg/mL (≈ 0.357 µM) | MIC (Rhizopus arrhizus; Rhizopus arrhizus RA1, RPMI 0.165M MOPS): 0.25 µg/mL (≈ 0.357 µM) | MIC (P. variatii): ≤ 0.03 µg/mL | MIC (Saksenaea sp.; Saksenaea sp. SK1, RPMI 0.165M MOPS): ≤ 0.03 µg/mL | MIC (Saksenaea sp.; Saksenaea sp. SK2, RPMI 0.165M MOPS): ≤ 0.03 µg/mL | MIC (Saksenaea sp.; Saksenaea sp. SK3, RPMI 0.165M MOPS): 0.125 µg/mL (≈ 0.178 µM) | MIC (Apaphysomyces; Apaphysomyces APO1, RPMI 0.165M MOPS): 0.125 µg/mL (≈ 0.178 µM) | MIC (Apaphysomyces; Apaphysomyces APO2, RPMI 0.165M MOPS): 0.125 µg/mL (≈ 0.178 µM) | MIC (Apaphysomyces; Apaphysomyces APO3, RPMI 0.165M MOPS): 0.25 µg/mL (≈ 0.357 µM)

Neomycin [reference compound]
Minimum inhibitory concentration (E. coli (25922)): 2 µg/mL | Minimum inhibitory concentration (S. aureus (ATCC 25923)): 2 µg/mL
